Results taken from patent US20200054643A1, “FUSED HETEROCYCLIC COMPOUNDS AS SELECTIVE BMP INHIBITORS” (Vanderbilt University, priority 2017, published 2020).

Tests used:
BMP4 = BMP4 cell assay (BMP reporter); assay type: cell-based; conditions: Table 2
ALK2/ACVR1 = molecular target: T1, ALK2/ACVR1 (Homo sapiens, UniProt Q04771); experiment: BMP Type 1 receptor assay, ALK2/ACVR1; assay type: biochemical
T1 sequence (Q04771 21-509): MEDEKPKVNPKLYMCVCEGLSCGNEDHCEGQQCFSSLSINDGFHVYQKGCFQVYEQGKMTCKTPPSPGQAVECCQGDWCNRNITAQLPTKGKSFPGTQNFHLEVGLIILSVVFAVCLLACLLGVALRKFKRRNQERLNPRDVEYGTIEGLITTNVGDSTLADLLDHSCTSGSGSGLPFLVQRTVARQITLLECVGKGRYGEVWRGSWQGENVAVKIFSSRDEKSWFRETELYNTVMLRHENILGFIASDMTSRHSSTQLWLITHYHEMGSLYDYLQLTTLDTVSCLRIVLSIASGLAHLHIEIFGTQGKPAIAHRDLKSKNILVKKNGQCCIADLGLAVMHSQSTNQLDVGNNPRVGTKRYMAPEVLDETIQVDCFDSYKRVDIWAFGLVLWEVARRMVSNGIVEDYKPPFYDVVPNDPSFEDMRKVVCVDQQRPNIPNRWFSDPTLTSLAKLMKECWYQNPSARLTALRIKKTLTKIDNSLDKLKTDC

ALK6/BMPR1B = ALK6/BMPR1B (Homo sapiens, UniProt O00238); experiment: BMP Type 1 receptor assay, ALK6/BMPR1B; assay type: biochemical
ALK5/TGFBR1 = molecular target: T2, ALK5/TGFBR1 (Homo sapiens, UniProt P36897); experiment: BMP Type 1 receptor assay, ALK5/TGFBR1; assay type: biochemical
T2 sequence (P36897 34-503): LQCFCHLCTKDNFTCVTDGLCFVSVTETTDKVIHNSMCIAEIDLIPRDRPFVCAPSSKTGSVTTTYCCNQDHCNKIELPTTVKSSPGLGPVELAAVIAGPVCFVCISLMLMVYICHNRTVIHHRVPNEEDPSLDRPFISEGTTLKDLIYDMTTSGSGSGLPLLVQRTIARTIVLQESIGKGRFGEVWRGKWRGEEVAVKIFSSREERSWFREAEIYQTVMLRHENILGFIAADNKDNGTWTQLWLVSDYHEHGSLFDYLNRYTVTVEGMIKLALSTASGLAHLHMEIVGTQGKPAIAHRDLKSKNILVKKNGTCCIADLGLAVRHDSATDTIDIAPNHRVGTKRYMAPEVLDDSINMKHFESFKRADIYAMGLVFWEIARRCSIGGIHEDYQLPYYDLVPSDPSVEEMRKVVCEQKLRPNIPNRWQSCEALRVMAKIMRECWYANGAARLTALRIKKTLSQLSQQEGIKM

ALK3/BMPRR1A = ALK3/BMPRR1A (Homo sapiens, UniProt P36894); experiment: BMP Type 1 receptor assay, ALK3/BMPRR1A; assay type: biochemical
ALK1/ACVR1 = ALK1/ACVR1 (Homo sapiens, UniProt P37023); experiment: BMP Type 1 receptor assay, ALK1/ACVR1; assay type: biochemical
Chain of ALK1/ACVR1 (P37023 22-503): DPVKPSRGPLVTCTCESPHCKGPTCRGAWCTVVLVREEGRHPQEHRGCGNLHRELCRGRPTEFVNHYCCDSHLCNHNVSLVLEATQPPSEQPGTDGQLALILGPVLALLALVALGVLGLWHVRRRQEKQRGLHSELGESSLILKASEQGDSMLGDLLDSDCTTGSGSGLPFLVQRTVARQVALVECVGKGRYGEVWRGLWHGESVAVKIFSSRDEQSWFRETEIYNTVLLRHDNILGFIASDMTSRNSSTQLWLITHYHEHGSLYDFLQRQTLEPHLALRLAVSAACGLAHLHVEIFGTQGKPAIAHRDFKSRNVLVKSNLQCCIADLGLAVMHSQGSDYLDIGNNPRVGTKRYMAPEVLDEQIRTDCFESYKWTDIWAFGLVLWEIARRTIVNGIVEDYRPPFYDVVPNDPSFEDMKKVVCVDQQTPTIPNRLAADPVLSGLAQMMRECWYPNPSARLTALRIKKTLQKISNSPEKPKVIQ

Chain of ALK6/BMPR1B (O00238 14-502): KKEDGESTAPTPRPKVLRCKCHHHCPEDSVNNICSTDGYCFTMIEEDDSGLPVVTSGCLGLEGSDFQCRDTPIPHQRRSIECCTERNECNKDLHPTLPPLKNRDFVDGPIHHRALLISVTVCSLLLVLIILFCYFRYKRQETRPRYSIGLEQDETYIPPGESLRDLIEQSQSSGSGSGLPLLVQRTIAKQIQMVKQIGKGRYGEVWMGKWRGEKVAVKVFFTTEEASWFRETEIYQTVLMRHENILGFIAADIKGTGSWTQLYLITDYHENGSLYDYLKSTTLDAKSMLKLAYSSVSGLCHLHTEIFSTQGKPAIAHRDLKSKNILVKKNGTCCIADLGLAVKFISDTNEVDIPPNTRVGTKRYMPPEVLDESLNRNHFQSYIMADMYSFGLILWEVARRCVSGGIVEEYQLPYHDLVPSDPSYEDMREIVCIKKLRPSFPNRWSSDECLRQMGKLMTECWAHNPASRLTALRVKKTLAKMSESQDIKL
Chain of ALK3/BMPRR1A (P36894 24-532): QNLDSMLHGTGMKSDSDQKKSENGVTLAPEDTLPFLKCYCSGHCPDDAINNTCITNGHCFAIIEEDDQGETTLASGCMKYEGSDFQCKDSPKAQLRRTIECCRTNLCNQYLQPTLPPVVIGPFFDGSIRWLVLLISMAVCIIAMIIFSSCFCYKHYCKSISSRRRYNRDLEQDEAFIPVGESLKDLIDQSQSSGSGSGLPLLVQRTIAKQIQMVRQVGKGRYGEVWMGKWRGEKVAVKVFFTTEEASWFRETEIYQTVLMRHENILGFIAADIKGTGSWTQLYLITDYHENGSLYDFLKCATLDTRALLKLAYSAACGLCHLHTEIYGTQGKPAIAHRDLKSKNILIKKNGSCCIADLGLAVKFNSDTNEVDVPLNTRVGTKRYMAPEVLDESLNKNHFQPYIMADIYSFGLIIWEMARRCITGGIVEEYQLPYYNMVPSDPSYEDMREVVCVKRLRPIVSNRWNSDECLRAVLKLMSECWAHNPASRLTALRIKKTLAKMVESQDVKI

CC(C)Oc1ccc(-c2cc3ncc(-c4ccnc5ccccc45)n3cn2)cc1
IC50 (BMP4): 8100 nM

c1ccc2c(-c3cnc4cc(-c5ccc6c(c5)OCCO6)ccn34)ccnc2c1 [Entry 5, 4-(7-(2,3-dihydrobenzo[b][1,4]dioxin-6-yl)imidazo[1,2-a]pyridin-3-yl)quinoline]
IC50 (ALK2/ACVR1): 270 nM

CN1CCN(c2ccc(-c3ccn4c(-c5ccnc6ccccc56)cnc4c3)cc2)CC1 [Entry 21, 4-(7-(4-(4-methylpiperazin-1-yl)phenyl)imidazo[1,2-a]pyridin-3-yl)quinoline]
IC50 (ALK6/BMPR1B): 11 nM
IC50 (ALK5/TGFBR1): 3960 nM
IC50 (ALK3/BMPRR1A): 7.9 nM

CC(C)Oc1ccc(-c2ccn3c(-c4ccnc(Cl)c4)cnc3c2)cc1 [Entry 25, 3-(2-chloropyridin-4-yl)-7-(4-isopropoxyphenyl)imidazo[1,2-a]pyridine]
IC50 (ALK2/ACVR1): 155 nM
IC50 (ALK6/BMPR1B): 340 nM
IC50 (ALK1/ACVR1): 87 nM
IC50 (ALK5/TGFBR1): 13600 nM
IC50 (ALK3/BMPRR1A): 118 nM

CC(C)Oc1ccc(-c2ccn3c(-c4ccnc(F)c4)cnc3c2)cc1 [Entry 26, 3-(2-fluoropyridin-4-yl)-7-(4-isopropoxyphenyl)imidazo[1,2-a]pyridine]
IC50 (ALK2/ACVR1): 265 nM
IC50 (ALK5/TGFBR1): > 100000 nM

c1ccc(-c2cnc3cc(-c4ccc(OCCN5CCOCC5)cc4)ccn23)cc1 [Entry 30, 4-(2-(4-(3-phenylimidazo[1,2-a]pyridin-7-yl)phenoxy)ethyl)morpholine]
IC50 (ALK2/ACVR1): 645 nM
IC50 (ALK5/TGFBR1): > 100000 nM

CC(C)Oc1ccc(-c2ccn3c(-c4cn[nH]c4)cnc3c2)cc1 [Entry 42, 7-(4-isopropoxyphenyl)-3-(1H-pyrazol-4-yl)imidazo[1,2-a]pyridine]
IC50 (ALK2/ACVR1): 1970 nM
IC50 (ALK6/BMPR1B): 895 nM
IC50 (ALK1/ACVR1): 494 nM
IC50 (ALK5/TGFBR1): > 100000 nM
IC50 (ALK3/BMPRR1A): 92 nM

Cc1cc(-c2cnc3cc(-c4ccc(OC(C)C)cc4)ccn23)ccn1 [Entry 45, 7-(4-isopropoxyphenyl)-3-(2-methylpyridin-4-yl)imidazo[1,2-a]pyridine]
IC50 (ALK2/ACVR1): 149 nM
IC50 (ALK5/TGFBR1): 3490 nM

Cc1cc(-c2cnc3cc(-c4ccc(N5CCN(C)CC5)cc4)ccn23)c2ccccc2n1 [Entry 51, 2-methyl-4-(7-(4-(4-methylpiperazin-1-yl)phenyl)imidazo[1,2-a]pyridin-3-yl)quinoline]
IC50 (ALK2/ACVR1): 26.5 nM

CN1CCN(c2ccc(-c3ccn4c(-c5csc6nccnc56)cnc4c3)cc2)CC1 [Entry 60, 7-(7-(4-(4-methylpiperazin-1-yl)phenyl)imidazo[1,2-a]pyridin-3-yl)thieno [2,3-b]pyrazine]
IC50 (ALK3/BMPRR1A): 40.1 nM

CN1CCN(c2ccc(-c3ccn4c(-c5ccnc6ccsc56)cnc4c3)cc2)CC1 [Entry 62, 7-(7-(4-(4-methylpiperazin-1-yl)phenyl)imidazo[1,2-a]pyridin-3-yl) thieno[3,2-b]pyridine]
IC50 (ALK3/BMPRR1A): 50.8 nM

CN1CCN(c2ccc(-c3ccn4c(-c5ccncc5)cnc4c3)cc2)CC1 [Entry 66, 7-(4-(4-methylpiperazin-1-yl)phenyl)-3-(pyridin4-yl)imidazo[1,2-a]pyridine]
IC50 (ALK2/ACVR1): 46 nM

Cc1cc(-c2cnc3cc(-c4ccc(N5CCN(C)CC5)cc4)ccn23)ccn1 [Entry 67, 7-(4-(4-methylpiperazin-1-yl)phenyl)-3-(2-methylpyridin-4-yl)imidazo[1,2-a]pyridine]
IC50 (ALK2/ACVR1): 20 nM

c1ccc2c(-c3cnc4cc(-c5ccc(OCCN6CCOCC6)cc5)ccn34)ccnc2c1 [Example 1, 4-(2-(4-(3-(quinolin-4-yl)imidazo[1,2-a]pyridin-7-yl)phenoxy)ethyl)morpholine]
IC50 (BMP4): 62 nM

c1ccc2c(-c3cnc4cc(-c5ccc6c(c5)OCCO6)ccn34)ccnc2c1 [drawing 207]
IC50 (BMP4): 2890 nM
